ChEMBL document CHEMBL1201862, “PubChem BioAssay data set” (2004)
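Compound exposure: 48 hours, 5 concentrations, 96-well plates. GI50 = concentration required for 50% inhibition of growth.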 The source made the active and inactive calls. Cut-off read from the data, not from the text of the source: active = GI50 up to about 1.1 µM and inactive = higher.

What was measured:
Assay in all cases: inhibition of tumour cell growth, NCI panel, 48 h
K562 = tested on: K562
MDA-N = tested on: MDA-N
ACHN = tested on: ACHN
TK-10 = tested on: TK-10
KM12 = tested on: KM12
CAKI-1 = tested on: CAKI-1
T47D = tested on: T47D
SN12C = tested on: SN12C
EKVX = tested on: EKVX
MCF7 = tested on: MCF7
UACC-257 = tested on: UACC-257
PC-3 = tested on: PC-3
SK-MEL-2 = tested on: SK-MEL-2
UACC-62 = tested on: UACC-62
SK-MEL-5 = tested on: SK-MEL-5
A549 = tested on: A549
NCI-H23 = tested on: NCI-H23
CCRF-CEM = tested on: CCRF-CEM
SNB-75 = tested on: SNB-75

Measured: GI50

NC(=O)c1csc(-c2ccc(CO)o2)n1
inactive: K562 > 100 µM | MDA-N > 100 µM | ACHN > 100 µM | TK-10 > 100 µM | KM12 > 100 µM | CAKI-1 > 100 µM | T47D > 100 µM | SN12C > 100 µM | EKVX > 100 µM | MCF7 > 100 µM | UACC-257 > 100 µM | PC-3 > 100 µM | SK-MEL-2 > 100 µM | UACC-62 > 100 µM | SK-MEL-5 > 100 µM | A549 > 100 µM | NCI-H23 > 100 µM

CCOc1ncn(-c2ccc(NC(=S)NC34CC5CC(CC(C5)C3)C4)cc2)n1
inactive: K562 > 100 µM | CCRF-CEM > 100 µM | SNB-75 25.4 µM | MDA-N > 100 µM | TK-10 59.2 µM | KM12 8.47 µM | T47D > 100 µM | SN12C > 100 µM | EKVX > 100 µM | MCF7 > 100 µM | UACC-257 > 100 µM | PC-3 > 100 µM | UACC-62 38 µM | SK-MEL-5 58.5 µM | A549 7.24 µM | NCI-H23 > 100 µM

O=C(O)CC(NC(=O)/C(=C/c1ccccc1O)NC(=O)c1ccccc1)C(=O)O (configuration not stated)
inactive: K562 74.1 µM | CCRF-CEM 33.9 µM | SNB-75 88.1 µM | MDA-N > 100 µM | ACHN 40.8 µM | TK-10 > 100 µM | KM12 > 100 µM | CAKI-1 34.7 µM | T47D 79.4 µM | SN12C > 100 µM | EKVX 83.9 µM | MCF7 34 µM | UACC-257 > 100 µM | PC-3 86.1 µM | SK-MEL-2 > 100 µM | UACC-62 42.5 µM | SK-MEL-5 > 100 µM | A549 > 100 µM | NCI-H23 > 100 µM

CN(C)CCCN1CCc2c([nH]c3ccccc23)C1c1cccnc1 (configuration not stated)
inactive: K562 > 100 µM | CCRF-CEM > 100 µM | SNB-75 > 100 µM | ACHN > 100 µM | TK-10 > 100 µM | KM12 > 100 µM | CAKI-1 > 100 µM | SN12C > 100 µM | EKVX > 100 µM | UACC-257 > 100 µM | SK-MEL-2 > 100 µM | UACC-62 > 100 µM | SK-MEL-5 > 100 µM | A549 > 100 µM | NCI-H23 > 100 µM

Cc1cc2ccccc2oc(=O)/c1=N\Nc1ccccc1
inactive: K562 14.5 µM | CCRF-CEM > 100 µM | SNB-75 20.9 µM | MDA-N > 100 µM | ACHN 22.6 µM | KM12 58.2 µM | CAKI-1 37.4 µM | SN12C 65.3 µM | EKVX 37.2 µM | MCF7 83.2 µM | UACC-257 > 100 µM | PC-3 62.7 µM | SK-MEL-2 > 100 µM | UACC-62 19.2 µM | SK-MEL-5 84.1 µM | A549 74.3 µM | NCI-H23 78.5 µM

CCC(C)(C)C1CCC2c3c([nH]c4ccccc34)C3C(=O)N(c4ccc(OC)cc4)C(=O)C3C2C1 (configuration not stated)
inactive: K562 5.16 µM | SNB-75 16.2 µM | MDA-N 18.7 µM | ACHN 11.2 µM | TK-10 16.7 µM | KM12 3.48 µM | CAKI-1 10.4 µM | T47D 6.55 µM | SN12C 2.42 µM | EKVX 35.4 µM | MCF7 3.94 µM | UACC-257 34 µM | PC-3 9.79 µM | SK-MEL-2 16.7 µM | UACC-62 54.7 µM | A549 13.4 µM | NCI-H23 10.5 µM

CCOP(=O)(OCC)/C(C#N)=C/c1cccn1C(C)C
inactive: K562 > 100 µM | SNB-75 > 100 µM | MDA-N > 100 µM | ACHN > 100 µM | TK-10 > 100 µM | KM12 > 100 µM | CAKI-1 > 100 µM | T47D > 100 µM | SN12C > 100 µM | EKVX > 100 µM | MCF7 > 10 µM | UACC-257 > 100 µM | PC-3 > 100 µM | SK-MEL-2 > 100 µM | UACC-62 > 100 µM | SK-MEL-5 > 100 µM | A549 > 100 µM | NCI-H23 > 100 µM

C[C@]12CC[C@@H]3c4ccc(O)cc4CC[C@H]3[C@@H]1CC[C@@H]2OC(=O)CCC1CCCC1 [ESTRADIOL CYPIONATE]
inactive: K562 17.2 µM | CCRF-CEM 17.8 µM | MDA-N 6.85 µM | ACHN 23.8 µM | TK-10 23.4 µM | KM12 26.8 µM | CAKI-1 19.1 µM | T47D 14.2 µM | SN12C 16.7 µM | EKVX 7.45 µM | MCF7 17.1 µM | UACC-257 35 µM | PC-3 16.6 µM | SK-MEL-2 23.2 µM | UACC-62 14.4 µM | SK-MEL-5 17.5 µM | A549 17.8 µM | NCI-H23 17.7 µM
